Data: ChEMBL document CHEMBL1153260, “The synthesis of aminobenzazepinones as anti-phenylalanine dipeptide mimics and their use in nep inhibition” (Bioorg Med Chem Lett, 1996)

Biological target: T1, Neprilysin (Rattus norvegicus, UniProt P07861)
T1 sequence (P07861 whole entry): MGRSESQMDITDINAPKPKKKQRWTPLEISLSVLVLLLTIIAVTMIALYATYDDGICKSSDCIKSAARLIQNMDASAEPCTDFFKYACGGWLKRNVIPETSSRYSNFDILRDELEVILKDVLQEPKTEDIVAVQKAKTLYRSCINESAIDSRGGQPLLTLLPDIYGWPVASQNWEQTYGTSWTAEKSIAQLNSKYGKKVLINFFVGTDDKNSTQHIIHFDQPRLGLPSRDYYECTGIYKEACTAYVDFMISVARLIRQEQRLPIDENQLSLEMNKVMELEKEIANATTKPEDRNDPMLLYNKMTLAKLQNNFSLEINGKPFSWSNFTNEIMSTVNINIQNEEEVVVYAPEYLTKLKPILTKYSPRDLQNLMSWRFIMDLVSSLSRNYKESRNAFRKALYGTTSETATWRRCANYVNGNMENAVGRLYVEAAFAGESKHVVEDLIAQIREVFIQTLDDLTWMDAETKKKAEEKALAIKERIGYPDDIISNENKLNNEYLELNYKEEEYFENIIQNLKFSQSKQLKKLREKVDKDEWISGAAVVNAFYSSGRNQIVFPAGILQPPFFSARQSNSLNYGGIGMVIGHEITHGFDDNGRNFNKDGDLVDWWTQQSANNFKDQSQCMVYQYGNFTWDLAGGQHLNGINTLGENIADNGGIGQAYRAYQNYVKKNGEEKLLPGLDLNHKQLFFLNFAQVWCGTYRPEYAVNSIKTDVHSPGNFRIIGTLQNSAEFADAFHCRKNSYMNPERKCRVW
Test: Compound was tested for inhibition of neutral endopeptidase (NEP).

Ki [nM] | Structure (SMILES)
330 | CC(C)CC(C(=O)O)N1CCO[C@@H](c2ccccc2)[C@H](NC(=O)[C@H](S)Cc2ccccc2)C1=O (single isomer, unassigned)
0.07 | O=C(O)C1CCCC2c3ccccc3C[C@H](NC(=O)[C@H](S)Cc3ccccc3)C(=O)N12 (stereo partly drawn)
0.4 | CC(C)C[C@@H](C(=O)O)N1Cc2ccccc2C[C@H](NC(=O)[C@H](S)Cc2ccccc2)C1=O
